Experiments:
P388 = test: In vitro cytotoxicity against P388 leukemic cell line following a 6 day exposure.; format: functional, cell-based; conditions: Mus musculus, P388, 144 h
A549 = test: In vitro cytotoxicity against Lung A-549 human tumors following a 2 day exposure.; format: functional; conditions: A549, 48 h
A498 = test: In vitro cytotoxicity against Renal A-498 human tumors following a 2 day exposure.; format: functional; conditions: A498, 48 h
SF-295 = test: In vitro cytotoxicity against CNS SF-295 human tumors following a 2 day exposure.; format: functional; conditions: SF-295, 48 h
HT-29 [1] = test: In vitro cytotoxicity against Colon HT-29 human tumors following a 6 day exposure.; format: functional; conditions: HT-29, 144 h, read-out: ED50 (the source's name)
HL-60 = test: In vitro cytotoxicity against HL-60 leukemia human tumors following a 2 day exposure.; format: functional; conditions: HL-60, 48 h
HT-29 [2] = test: In vitro cytotoxicity against Colon HT-29 human tumors following a 2 day exposure.; format: functional; conditions: HT-29, 48 h
Homo sapiens [3] = organism: Homo sapiens; test: In vitro cytotoxicity against Breast avg 1-3 types of human tumors following a 6 day exposure.; format: functional; conditions: 144 h, read-out: ED50 (the source's name)
IGROV-1 = test: In vitro cytotoxicity against Ovary IGROVIg OVI human tumors following a 2 day exposure.; format: functional; conditions: IGROV-1, 48 h
LOX IMVI = test: In vitro cytotoxicity against Skin LOX IMVI human tumors following a 2 day exposure.; format: functional; conditions: 48 h
MCF7 = test: In vitro cytotoxicity against Breast MCF-7 human tumors following a 2 day exposure.; format: functional; conditions: 48 h
[4] = system: Panel NCI-60 (60 carcinoma cell lines); test: In vitro cytotoxicity against a subset of 60 cell lines (NCI-60) in human tumors following a 2 day exposure. Values in parentheses is the % cell lines affected.; format: functional; conditions: 48 h
NCI [5] = test: In vitro cytotoxicity against a subset of 10 cell lines (NCI-10) in human tumors following a 2 day exposure. Values in parentheses is the % cell lines affected.; format: functional; conditions: 48 h
PC-3 [6] = test: In vitro cytotoxicity against prostate PC-3 human tumors following a 2 day exposure.; format: functional; conditions: PC-3, 48 h
RXF 393 = test: In vitro cytotoxicity against Renal RXF-393 human tumors following a 2 day exposure.; format: functional; conditions: RXF 393, 48 h
Homo sapiens [7] = organism: Homo sapiens; test: In vitro cytotoxicity against various human tumors (6-8 lines) as determined in the Purdue cell culture laboratory, following a 6 day exposure; format: functional; conditions: 144 h, read-out: ED50 (the source's name)
[8] = (§1) In vitro cytotoxicity against […] PACA-2 human tumors following a 6 day exposure; format: functional; conditions: PaCa-2, 144 h, read-out: ED50 (the source's name)
PC-3 [9] = test: In vitro cytotoxicity against prostate PC-3 human tumors following a 6 day exposure; format: functional; conditions: PC-3, 144 h, read-out: ED50 (the source's name)
NCI [10] = test: In vitro cytotoxicity against a subset of 10 cell lines (NCI-10) in human tumors following a 2 day exposure; ND is no data; format: functional; conditions: 48 h
MIA PaCa-2 = test: as §1; format: functional; conditions: MIA PaCa-2, 144 h, read-out: ED50 (the source's name)

| SMILES | IC50 (P388) [nM] | GI50 (A549) [nM] | GI50 (A498) [nM] | GI50 (SF-295) [nM] | EC50 (HT-29 [1]) [nM] | GI50 (HL-60) [nM] | GI50 (HT-29 [2]) [nM] | EC50 (Homo sapiens [3]) [nM] | GI50 (IGROV-1) [nM] | GI50 (LOX IMVI) [nM] | GI50 (MCF7) [nM] | GI50 [4] [nM] | GI50 (NCI [5]) [nM] | GI50 (PC-3 [6]) [nM] | GI50 (RXF 393) [nM] | EC50 (Homo sapiens [7]) [nM] | EC50 [8] [nM] | EC50 (PC-3 [9]) [nM] | GI50 (NCI [10]) [nM] | EC50 (MIA PaCa-2) [nM] |
| --- | --- | --- | --- | --- | --- | --- | --- | --- | --- | --- | --- | --- | --- | --- | --- | --- | --- | --- | --- | --- |
| CC(=O)O[C@H]1CC2Cc3nc4c(nc3C[C@]2(C)C2C[C@@H](O)[C@@]3(C)C(=CC5O[C@]6(CC[C@](C)(O)CO6)[C@@H](C)C53O)C21)CC1CCC2C(C[C@@H](O)[C@@]3(C)C2CC2OC5(CCC(C)(C)O5)[C@@H](C)C23)[C@@]1(C)C4 (some centres undefined) | 96 | – | – | – | – | – | – | – | – | – | – | – | – | – | – | – | – | – | – | – |
| C[C@H]1C2C(CC3C4CCC5Cc6nc7c(nc6C[C@]5(C)C4CC(=O)[C@@]32C)CC2CC(=O)C3C4=CC5O[C@]6(CC[C@](C)(O)CO6)[C@@H](C)C5(O)[C@@]4(C)[C@H](O)CC3[C@@]2(C)C7)OC12CCC(C)(C)O2 (some centres undefined) | 19 | – | – | – | – | – | – | – | – | – | – | – | – | – | – | – | – | – | – | – |
| CC1C2(O)C(C=C3C4CCC5Cc6nc7c(nc6C[C@]5(C)C4C[C@@H](O)[C@@]32C)CC2CCC3C4=CC5OC6(CCC(C)(C)O6)[C@@H](C)C5[C@@]4(C)[C@H](O)CC3[C@@]2(C)C7)O[C@]12CC[C@](C)(O)CO2 (some centres undefined) | – | 76 | 0.55 | 1.2 | 0.012 | 1.2 | > 650 | 0.036 | > 1000 | 12 | 37 | > 34 | 4.2 | 12 | 0.55 | – | – | – | – | – |
| C[C@@H]1C2(OC3C=C4C5CCC6Cc7nc8c(nc7C[C@]6(C)C5C[C@@H](O)[C@]4(C)C31O)CC1CCC3C4=CCC5[C@H](C)[C@@]6(OC[C@]45[C@H](O)CC3[C@@]1(C)C8)OC(C)(C)C[C@H]6O)O[C@](C)(CO)C[C@H]2O (some centres undefined) | – | – | – | – | 0.0012 | – | – | 0.0011 | – | – | – | – | – | – | – | – | – | – | – | – |
| C[C@H]1C2C(C[C@H]3C4CCC5Cc6nc7c(nc6C[C@]5(C)C4C[C@@H](O)[C@]23C)CC2CCC3C4=CC5O[C@]6(CC[C@](C)(O)CO6)[C@@H](C)C5(O)[C@@]4(C)[C@H](O)CC3[C@@]2(C)C7)OC12CCC(C)(C)O2 (stereo partly drawn) [14-EPI-7'-DEOXYRITTERAZINE B] | – | 76 | > 300 | 9.3 | – | > 660 | > 650 | – | > 1000 | 45 | 56 | > 105 | > 55 | 40 | 4.1 | – | – | – | – | – |
| C[C@@H]1[C@]2(O[C@H]3C=C4[C@@H]5CC[C@H]6Cc7nc8c(nc7C[C@]6(C)[C@H]5C[C@@H](O)[C@]4(C)[C@]31O)C[C@@H]1CC[C@H]3C4=CC[C@@H]5[C@H](C)[C@@]6(OC[C@]45C(=O)C[C@@H]3[C@@]1(C)C8)OC(C)(C)C[C@H]6O)O[C@](C)(CO)C[C@H]2O [CEPHALOSTATIN 1] | – | 0.4 | < 0.1 | < 0.1 | – | 0.2 | 6.3 | – | 10 | 0.4 | 2.5 | 1.2 | 0.8 | < 0.1 | < 0.1 | – | – | – | – | – |
| C[C@@H]1[C@]2(O[C@H]3C=C4[C@@H]5CC[C@H]6Cc7nc8c(nc7C[C@]6(C)[C@H]5C[C@@H](O)[C@]4(C)[C@]31O)C[C@@H]1CC[C@H]3C4=C[C@@H]5O[C@]6(CC[C@](C)(O)CO6)C[C@]5(O)[C@@]4(C)[C@H](O)C[C@@H]3[C@@]1(C)C8)O[C@](C)(CO)C[C@H]2O [CEPHALOSTATIN 7] | – | 138 | 31 | 11 | 30 | 25 | 271 | 38 | 480 | 37 | 27 | 50 | 16 | 23 | 7.9 | 0.052 | 0.41 | 0.0021 | – | – |
| C[C@@H]1C2(OC3C=C4C5CCC6Cc7nc8c(nc7C[C@]6(C)C5C[C@@H](O)[C@]4(C)C31O)CC1CCC3C(CC(=O)[C@]45CO[C@@]6(OC(C)(C)C[C@H]6O)[C@@H](C)C4CCC35)[C@@]1(C)C8)O[C@](C)(CO)C[C@H]2O (some centres undefined) [DIHYDROCEPHALOSTATIN 1] | – | 0.59 | 3.6 | < 0.1 | – | 0.12 | 1.1 | – | 2.9 | 0.17 | 3.5 | 2.4 | 0.8 | 0.22 | < 0.1 | – | – | – | – | – |
| C[C@@H]1[C@@]2(CC[C@](C)(O)CO2)O[C@H]2C=C3[C@@H]4[C@@H](O)C[C@H]5Cc6nc7c(nc6C[C@]5(C)[C@H]4C[C@@H](O)[C@]3(C)[C@]21O)C[C@@H]1CC[C@H]2[C@H]3C[C@@H]4O[C@@]5(CCC(C)(C)O5)C[C@@H]4[C@@]3(C)[C@H](O)C[C@@H]2[C@@]1(C)C7 [RITTERAZINE B] | 0.17 | – | – | < 0.1 | – | 0.16 | – | 0.0021 | – | – | – | – | – | – | < 0.1 | – | – | – | 1 | – |
| C[C@@H]1[C@@]2(CC[C@](C)(O)CO2)O[C@H]2C=C3[C@@H]4[C@@H](O)C[C@H]5Cc6nc7c(nc6C[C@]5(C)[C@H]4C[C@@H](O)[C@]3(C)[C@]21O)C[C@@H]1CC[C@H]2[C@H]3C[C@@H]4O[C@@]5(CCC(C)(C)O5)C[C@@H]4[C@@]3(C)C(=O)C[C@@H]2[C@@]1(C)C7 [RITTERAZINE H] | 18 | – | – | – | – | – | – | – | – | – | – | – | – | – | – | – | – | – | – | – |
| C[C@@H]1[C@@]2(CC[C@](C)(O)CO2)O[C@H]2C=C3[C@@H]4[C@@H](O)C[C@H]5Cc6nc7c(nc6C[C@]5(C)[C@H]4C[C@@H](O)[C@]3(C)[C@]21O)C[C@@H]1CC[C@H]2C3=C[C@@H]4O[C@]5(CC[C@@](C)(O)CO5)[C@@H](C)[C@]4(O)[C@@]3(C)[C@H](O)C[C@@H]2[C@@]1(C)C7 [RITTERAZINE J] | 14 | – | – | – | – | – | – | – | – | – | – | – | – | – | – | – | – | – | – | – |
| C[C@@H]1[C@@]2(CC[C@](C)(O)CO2)O[C@H]2C=C3[C@H]4CC[C@H]5Cc6nc7c(nc6C[C@]5(C)[C@H]4C[C@@H](O)[C@]3(C)[C@]21O)C[C@@H]1CC[C@H]2C3=C[C@@H]4O[C@]5(CC[C@@](C)(O)CO5)[C@@H](C)[C@]4(O)[C@@]3(C)[C@H](O)C[C@@H]2[C@@]1(C)C7 [RITTERAZINE K] | 10 | 110 | 190 | 4.1 | 28 | 4.4 | 288 | 11 | 347 | 20 | 100 | 96 | 4.5 | 91 | 1.4 | 0.047 | – | 0.0021 | – | 0.051 |
| C[C@@H]1C2(OC3C=C4C5CCC6Cc7nc8c(nc7C[C@]6(C)C5C[C@@H](O)[C@]4(C)C31O)CC1CCC3C4=CC5OC6(CCC(C)(C)O6)[C@@H](C)C5[C@@]4(C)[C@H](O)CC3[C@@]1(C)C8)O[C@](C)(CO)C[C@H]2O (some centres undefined) [RITTEROSTATIN] | – | 7.4 | 3 | 0.99 | – | 1.6 | 65 | – | 140 | 9.7 | 3.4 | 14 | 3.8 | 1.8 | 0.1 | – | – | – | – | – |
